In data set [1] the target is T1, Tyrosine-protein kinase BTK (Homo sapiens, UniProt Q06187). Nature of the data set: Inhibition of BTK in human PBMC assessed as reduction in cell surface CD69 expression preincubated for 1 hr followed by stimulation with goat anti-human IgM F(ab')2 for 18 hrs by immunostaining analysis. In kind it is tissue-based.
Data set [2] concerns the target T1, Tyrosine-protein kinase BTK. Nature of the data set: Inhibition of BTK in human whole blood assessed as reduction in cell surface CD69 expression preincubated for 1 hr followed by stimulation with anti-CD79b for 3 hrs by immunostaining analysis. In kind it is tissue-based.
For data set [3] the target is unchanged. Kind of data set: Inhibition of recombinant full length BTK (unknown origin) expressed in baculovirus infected Sf9 cells using Biotin-EQEDEPEGDYFEWLE-NH2 peptide as substrate incubated for 60 mins followed by further incubation with substrate and ATP for 120 mins by TR-FRET assay. (TR-FRET usually uses a lanthanide donor and a delayed reading to cut background.)

Data set [4] can be described thus: Cmax in Wistar Han rat at 5 mg/kg, po. In kind it is ADME, organism-based. Further details: route oral, dose 5 mg/kg. As to conditions: in vivo.
Data set [5] is described as follows: AUC in Wistar Han rat at 2 mg/kg, iv. In kind it is ADME, organism-based. Further details: dose 2 mg/kg. As to conditions: in vivo.
Data set [6] can be described thus: Half life in Wistar Han rat at 2 mg/kg, iv. In kind it is ADME, organism-based. As to conditions: in vivo.
Data set [7] can be described thus: Clearance in Wistar Han rat at 2 mg/kg, iv. In kind it is ADME, organism-based. As to conditions: in vivo.
Data set [8] can be described thus: Volume of distribution at steady state in Wistar Han rat at 2 mg/kg, iv. In kind it is ADME, organism-based. As to conditions: in vivo, read-out: Vdss.
Data set [9] is described as follows: Tmax in Wistar Han rat at 5 mg/kg, po. In kind it is ADME, organism-based. As to conditions: in vivo.
Data set [10] in a line: Oral bioavailability in Wistar Han rat at 5 mg/kg. In kind it is ADME, organism-based. The note with it: Wistar Han, in vivo.
Data set [11] can be described thus: AUC in Beagle dog at 1 mg/kg, iv. As to conditions: in vivo. In kind it is ADME, organism-based, Canis lupus familiaris. Set-up: dose 1 mg/kg.

22 compounds from ChEMBL document CHEMBL4725309, “Potent, non-covalent reversible BTK inhibitors with 8-amino-imidazo[1,5-a]pyrazine core featuring 3-position bicyclic ring substitutes” (Bioorg Med Chem Lett, 2020) can be followed below.

T1 sequence (Q06187 whole entry): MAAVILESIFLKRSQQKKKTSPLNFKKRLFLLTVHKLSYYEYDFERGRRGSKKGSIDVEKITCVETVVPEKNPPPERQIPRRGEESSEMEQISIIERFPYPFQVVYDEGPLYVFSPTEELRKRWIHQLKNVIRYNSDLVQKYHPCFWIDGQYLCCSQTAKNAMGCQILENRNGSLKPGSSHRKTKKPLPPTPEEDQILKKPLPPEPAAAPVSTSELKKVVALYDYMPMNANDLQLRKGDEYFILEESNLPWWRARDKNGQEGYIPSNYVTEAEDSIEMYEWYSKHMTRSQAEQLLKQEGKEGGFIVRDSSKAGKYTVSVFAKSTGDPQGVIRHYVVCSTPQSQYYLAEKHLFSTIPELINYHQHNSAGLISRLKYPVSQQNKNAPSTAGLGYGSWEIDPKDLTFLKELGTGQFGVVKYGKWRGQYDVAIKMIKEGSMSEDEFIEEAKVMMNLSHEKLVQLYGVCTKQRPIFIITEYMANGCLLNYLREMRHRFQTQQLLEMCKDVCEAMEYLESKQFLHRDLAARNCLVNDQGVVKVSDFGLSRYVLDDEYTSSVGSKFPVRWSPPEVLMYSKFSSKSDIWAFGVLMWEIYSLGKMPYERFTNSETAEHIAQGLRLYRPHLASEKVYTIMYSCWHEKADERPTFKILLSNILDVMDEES

For orientation: IC50 means the concentration needed to halve the response being measured. In the case of `Nc1nccn2c([C@@H]3CC[C@H]4COCC(=O)N4C3)nc(-c3ccc(C(=O)Nc4cc(C(F)(F)F)ccn4)cc3F)c12`, the IC50 in [1] amounted to 0.0058 µM; in [2], 0.078 µM; in [3] it was 0.0001 µM.

A word on the Cmax: it is the highest concentration seen after dosing. Usually AUC stands for concentration integrated over time. A high value points to high exposure. In general, half-life refers to the time in which the quantity being followed falls by half. Lower therefore signals rapid decline. As usually defined, the clearance is the rate of elimination divided by the concentration. The term Tmax denotes the time from dosing to the highest level. Usually bioavailability stands for the share of a dose that reaches the circulation, judged against a reference dose that is usually intravenous. A high value points to good availability. Regarding `Nc1nccn2c([C@@H]3CC[C@H]4CCC(=O)N4C3)nc(-c3ccc(C(=O)Nc4cc(C(F)(F)F)ccn4)cc3OC3CC3)c12`, the concentration in [4] peaked (Cmax) at 140 nM. In [5], this compound displayed an AUC of 1.4 µM·h. The half-life in data set [6] is 2.3 h. In addition, in data set [7], the clearance turned out to be 42 mL/min/kg. In addition, in data set [8], the Vd was found to be 4.2 L/kg. In addition, the Tmax in [9] turned out to be 3.5 h. This compound registered a bioavailability in data set [10] of 14%.

For `NC(=O)c1cc(C(=O)Nc2cc(C(F)(F)F)ccn2)ccc1-c1nc([C@@H]2CC[C@H]3CCC(=O)N3C2)n2ccnc(N)c12`, the IC50 in [1] is above 3 µM.

On to `Nc1nccn2c([C@@H]3CC[C@H]4CCC(=O)N4C3)nc(-c3ccc(C(=O)Nc4cc(C(F)(F)F)ccn4)cc3OC(F)(F)F)c12`, for which the IC50 in data set [1] came out at 0.074 µM; in data set [3] it was 0.01 µM.

With `C[C@H]1CC[C@@H](c2nc(-c3ccc(C(=O)Nc4cc(C(F)(F)F)ccn4)cc3F)c3c(N)nccn23)CN1C(=O)C1CC1`, the AUC in [5] was found to be 3.1 µM·h; in [11] it was 20 µM·h.

Turning to `Nc1nccn2c([C@@H]3CC[C@H]4CCC(=O)N4C3)nc(-c3ccc(C(=O)Nc4cc(C(F)(F)F)ccn4)cc3OC(F)F)c12`, the concentration for half-maximal inhibition (IC50) in data set [1] was 0.02 µM; in [2] it was 0.415 µM.

On to `Nc1nccn2c([C@@H]3CC[C@H]4CCC(=O)N4C3)nc(-c3ccc(C(=O)Nc4cc(C(F)(F)F)ccn4)cc3Oc3ccccc3)c12`, for which the IC50 in [1] was determined as 0.31 µM; in data set [3], 0.011 µM.

As to `C[C@@H]1OC(=O)N2C[C@H](c3nc(-c4ccc(C(=O)Nc5cc(C(F)(F)F)ccn5)cc4)c4c(N)nccn34)CC[C@@H]12`, the IC50 is 0.0049 µM in data set [1], 0.086 µM in data set [2] and 0.00013 µM in data set [3].

Consider `Nc1nccn2c([C@@H]3CC[C@H]4CCC(=O)N4C3)nc(-c3ccc(C(=O)Nc4cc(C(F)(F)F)ccn4)cc3C(=O)O)c12`, for which, in data set [1], the IC50 was 1.41 µM.

For the compound `CC(C)Oc1cc(C(=O)Nc2cc(C(F)(F)F)ccn2)ccc1-c1nc([C@@H]2CC[C@H]3CCC(=O)N3C2)n2ccnc(N)c12`, the IC50 in data set [1] worked out at 0.041 µM.

`Nc1nccn2c([C@H]3CN4C(=O)OC[C@@H]4CO3)nc(-c3ccc(C(=O)Nc4cc(C(F)(F)F)ccn4)cc3)c12`: the IC50 was found to be 0.582 µM in data set [1] and 0.025 µM in [3].

For the compound `Nc1nccn2c([C@@H]3CC[C@H]4CCC(=O)N4C3)nc(-c3ccc(C(=O)Nc4cc(C(F)(F)F)ccn4)cc3C(F)(F)F)c12`, the IC50 in data set [1] is above 3 µM; in [3], above 1 µM.

`Nc1nccn2c([C@@H]3CC[C@H]4CCC(=O)N4C3)nc(-c3ccc(C(=O)Nc4cc(C(F)(F)F)ccn4)cc3O)c12`: the IC50 in data set [1] turned out to be 0.011 µM.

`CN1C[C@@H]2CC[C@@H](c3nc(-c4ccc(C(=O)Nc5cc(C(F)(F)F)ccn5)cc4)c4c(N)nccn34)CN2C1=O`: the IC50 in data set [1] stood at 0.403 µM.

On to `Nc1nccn2c([C@@H]3CC[C@H]4CCCC(=O)N4C3)nc(-c3ccc(C(=O)Nc4cc(C(F)(F)F)ccn4)cc3F)c12`, for which the IC50 in [1] amounted to 0.039 µM.

As to `Nc1nccn2c([C@@H]3CC[C@H]4CCCN4C3)nc(-c3ccc(C(=O)Nc4cc(C(F)(F)F)ccn4)cc3)c12`, the figures for the IC50 in data set [1] and in [2] were 0.039 µM and 0.204 µM, respectively.

Take `Nc1nccn2c([C@H]3CN4C(=O)CC[C@@H]4CO3)nc(-c3ccc(C(=O)Nc4cc(C(F)(F)F)ccn4)cc3)c12`: the results for the IC50 in [1] and in data set [2] were 0.0072 µM and 0.263 µM, respectively.

With `C[C@H]1OC(=O)N2C[C@H](c3nc(-c4ccc(C(=O)Nc5cc(C(F)(F)F)ccn5)cc4)c4c(N)nccn34)CC[C@@H]12`, the IC50 stood at 0.0032 µM in data set [1] and 0.063 µM in data set [2].

For `CN1CC(=O)N2C[C@H](c3nc(-c4ccc(C(=O)Nc5cc(C(F)(F)F)ccn5)cc4F)c4c(N)nccn34)CC[C@H]2C1`, the results for the IC50 in data set [1], in data set [2] and in data set [3] were 0.016 µM, 0.104 µM and 0.00026 µM, respectively.

As to `Nc1nccn2c([C@@H]3CC[C@H]4CCC(=O)N4C3)nc(-c3ccc(C(=O)Nc4cc(C(F)(F)F)ccn4)cc3F)c12`, the concentration for half-maximal inhibition (IC50) in data set [1] is 0.004 µM; in [2] it was 0.101 µM.

In the case of `N#Cc1cc(C(=O)Nc2cc(C(F)(F)F)ccn2)ccc1-c1nc([C@@H]2CC[C@H]3CCC(=O)N3C2)n2ccnc(N)c12`, the IC50 in data set [1] is 0.267 µM.

Consider `CCOc1cc(C(=O)Nc2cc(C(F)(F)F)ccn2)ccc1-c1nc([C@@H]2CC[C@H]3CCC(=O)N3C2)n2ccnc(N)c12`, for which the IC50 in [1] turned out to be 0.01 µM; in data set [2], 0.092 µM.
